Assay results published in US20080076729A1, “Interferon-beta gene therapy using an improved, regulated expression system” (Schering Aktiengesellachaft, priority 2005, published 2008).

What was measured:
SJL mice with acute EAE = assay: Mouse acute EAE model, daily clinical scoring; format: in vivo; conditions: Mesopram 9 mg/kg, Prednisolone 2.5 mg/kg, IP twice daily
GAL-4 DBS = conditions: read-out: Kd for binding; cited from earlier work

Row | Molecule | clinical scores of EAE, positive controls (SJL mice with acute EAE; first study) | clinical scores of EAE, positive controls (SJL mice with acute EAE; second study) | Kd (GAL-4 DBS) [nM]
1 | CCCOc1cc([C@]2(C)CNC(=O)O2)ccc1OC [Mesopram, reference compound] | significantly decreased clinical scores | significantly decreased clinical scores | 
2 | GAL-4 residues 1-100: N-terminal DNA binding fragment of yeast GAL-4 protein |  |  | 3
3 | C[C@]12C=CC(=O)C=C1CC[C@@H]1[C@@H]2[C@@H](O)C[C@@]2(C)[C@H]1CC[C@]2(O)C(=O)CO [Prednisolone, reference compound] | significantly decreased clinical scores | significantly decreased clinical scores | 
